Counter-ions that a name gives are not always drawn. Blank lines part the entries; values can stand above or below the compound they belong to.
Assays:
[1] = Stability of test substance in the petri dishes used in the life test (LC analysis); type: physicochemical; conditions: for Test substance (%) / Main impurities: in petri dish medium used in the life test
Description: The analysis of PQQ sodium salt was conducted under analysis conditions given below. PQQ concentration and purity were measured by high-performance liquid chromatography under conditions shown below.
Apparatus: high-performance liquid chromatography, LC-2010 manufactured by Shimadzu Corp.
Column: YMC-Pack ODS-A, 150×4.6 mm I.D.
Measurement temperature: 40° C.
Detection: absorbance at 259 nm
Eluent: 30 mM acetic acid/70 mM ammonium acetate (pH 5.1)
The reduced pyrroloquinoline quinone, the acetone adduct of pyrroloquinoline quinone, and the IPQ trisodium salt in the petri dishes used in the life test were evaluated for their stability by liquid chromatography analysis (LC analysis). The liquid chromatography analysis can be conducted according to those described above.

[2] = test system: nematode C. elegans, wild-type; test: Life test (life assay) of nematode on medium containing the test substance; type: in vivo; conditions: for average life / life-extending effect: 5.0 mM in medium vs 0 mM, FIGS. 3 and 4
Description: Pyrroloquinoline quinone disodium salt was mixed with water and sodium hydroxide to obtain test sample concentrate 1 of pH 6. The content of the pyrroloquinoline quinone disodium salt in the test sample concentrate 1 was adjusted to 30 mM. The test sample concentrate 1 was autoclave-sterilized for use. […] Meanwhile, to each E. coli solution cultured in an LB medium (Luria-Bertani broth), the test sample concentrate 1 was added so as to attain the same concentration as that of the pyrroloquinoline quinone disodium salt in the medium of each of the prepared petri dishes. 100 μL of the obtained E. coli solution was seeded in a circular pattern of approximately 2 cm in diameter to the center of each petri dish. […] The petri dish was wrapped in Parafilm during storage. […] These individuals were excluded from the data. […] Petri dishes having media containing different concentrations of the acetone adduct were prepared by the same operation as in Example 1 except that the amount of the test sample concentrate 2 added was adjusted such that the concentration of the acetone adduct in each medium solution was 0 mM (Comparative Example 2) and 5.0 mM (Example 5). […] Petri dishes having media containing different concentrations of the IPQ trisodium salt were prepared by the same operation as in Example 1 except that the amount of the test sample concentrate 3 added was adjusted such that the concentration of the IPQ trisodium salt in each medium solution was 0 mM (Comparative Example 3) and 5.0 mM (Comparative Example 4).

[3] = test system: nematode variant gas-1 (fc2); test: Life test using variant gas-1 (fc2); type: in vivo, C. elegans
Description: (§1) Grown-up individuals were used in the life assay.
(§2) The petri dish was wrapped in Parafilm during storage. […] These individuals were excluded from the data.

[4] = test system: nematode variant bli-3 (e767), reduced activity of dual oxidase
Description: (§3) 7.2 g of NaCl, 48 g of agar, 6 g of Bactopeptone (manufactured by Becton, Dickinson and Company), and water (2.4 L including the amount of the sample concentrate to be added) were added into each flask. The flask was autoclaved at 120° C. for 20 minutes or longer and then cooled until the surface temperature of the flask became approximately 45° C. To this flask, 60 mL of a 1 M potassium phosphate solution, 2.4 mL of a 1 M CaCl2 solution, 2.4 mL of a 1 M MgSO4 solution, 2.4 mL of a 750 mg/150 mL cholesterol solution, and a predetermined amount of the 30 mM test sample concentrate 1 were added to obtain a medium solution. The amount of the test sample concentrate 1 added was adjusted such that the concentration of the pyrroloquinoline quinone disodium salt in the medium solution was 0 mM (Comparative Example 1), 0.1 mM (Example 1), 1.0 mM (Example 2), 3.0 mM (Example 3), and 5.0 mM (Example 4). The flask was further cooled until the surface temperature of the flask reached 40 to 41° C. 14 mL of the medium solution was added to each polystyrene petri dish having a diameter of 6 cm and cooled to room temperature to prepare petri dishes having media containing different concentrations of the pyrroloquinoline quinone disodium salt.
(§4) In order to synchronize the ages of nematode individuals at the start of the experiment, parent nematodes were allowed to lay eggs and then removed, and individuals evenly grown for a given period of time after hatching were used. Specifically, five adults (individuals under incubation) were selected and transferred to each petri dish, which was then left at 20° C. for 2 hours (lay period), and the parent nematodes were removed. Then, the petri dish was left at 20° C. for 72 hours. The life test was started when the number of individuals per petri dish reached 10 to 20.
as §1
(§5) The individuals in each petri dish were transferred to a fresh petri dish every day. Information on date, the number of survivors, the number of deaths, the number of missing individuals, etc., was recorded in a score sheet. The petri dish was wrapped in Parafilm during storage. An individual was judged as being dead when no spontaneous behavior was seen and no response was found even by vibration stimulus or contact stimulus. Nematodes are often missing because of running out of the petri dish, being dried at the wall, crawling out from a gap in the medium, for example. Therefore, the number of missing individuals was recorded and excluded from the data. Individuals that died of the eclosion of their children in their bodies, which occurs frequently in certain variants, were recorded as BAG, and individuals that died of hernia were recorded as rupture.
(§6) Nematode variants can be used to determine how PQQ works. A plurality of petri dishes were prepared using the medium containing 5 mM PQQ prepared in Example 4. The life extension test was conducted in the same way as in Example 1 using the prepared petri dishes and each variant shown in Table 2. The results obtained without the addition of PQQ are indicated as 100 for a relative effect.

[5] = test system: nematode variant skn-1 (zu67)
Description: as §3, §4, §1, §5, §6

[6] = test system: nematode variant nsy-1 (ky400)
Description: as §3, §4, §1, §5, §6

[7] = test system: nematode variant daf-2 (e1370)
Description: as §3, §4, §1, §5, §6

[8] = test system: nematode variant age-1 (hx546)
Description: as §3, §4, §1, §5, §6

[9] = test system: nematode variant bli-3 (im-10), reduced activity of dual oxidase
Description: as §3, §4, §1, §5, §6

[10] = test system: nematode variant pmk-3 (ok-169)
Description: as §3, §4, §1, §5, §6

[11] = test system: nematode line OB265bli-3 (e767); imEx144[bli-3genomic clone]; test: Life test using line OB265 bli-3 (e767); imEx144[bli-3genomic clone]; type: in vivo, C. elegans
Description: as §1, §2

[12] = Stability of reduced PQQ in agar medium, preservation test (LC and UV spectrum analysis); type: physicochemical; conditions: 30° C. for 3 days
Description: Ultraviolet-visible spectra were measured using a UV spectrometer UV1800 manufactured by Shimadzu Corp.
Reduced PQQ was added to sterile water to prepare a 30 mM dispersion. This dispersion was added so as to make 5 mM in the composition for evaluation described above to prepare a petri dish. The preservation test was conducted at 30° C. for 3 days, followed by LC analysis and UV spectrum analysis. The reduced formed is converted to PQQ under neutral conditions. Therefore, the reduced state can be confirmed by detecting PQQ by the LC analysis and measuring the UV spectrum of a solution thereof in dimethyl sulfoxide. As a result of confirming the state of the reduced PQQ in an agar medium in this way, 86% of all PQQs maintained the reduced state.

[13] = 5 mM PQQ, result without PQQ = 100

- Test substance (%) [1]: IPQ100%
SMILES: O=C(O)c1cc2c(=O)c3ncn4c(C(=O)O)cc(C(=O)O)c(c2[nH]1)c34 [IPQ, trisodium salt of imidazoloquinone, reference compound]
- average life / life-extending effect [2]: small life-extending effect

SMILES: O=C(O)c1cc(C(=O)O)c2c(n1)C(=O)C(=O)c1cc(C(=O)O)[nH]c1-2 [PQQ, Pyrroloquinoline quinone disodium salt]
- Average life after becoming adult ([3]; 5 mM PQQ in medium): 14.7 ± 0.9 days
- Relative value [3, 13]: 111
- average life (survival rate vs rearing days after becoming adults) ([2]; 0.1, 1.0, 3.0, 5.0 mM in medium vs 0 mM, FIGS. 1 and 2): tends to extend the average life
- Average life after becoming adult ([2]; wild-type, 5 mM PQQ in medium): 15.0 ± 0.6 days
- Relative value ([2]; wild-type, 5 mM PQQ, result without PQQ = 100): 140
- Average life after becoming adult ([4]; 5 mM PQQ in medium): 13.5 ± 0.4 days
- Relative value [4, 13]: 87
- Average life after becoming adult ([5]; skn-1 (zu67), 5 mM PQQ in medium): 12.8 ± 0.2 days
- Relative value ([5]; skn-1 (zu67), 5 mM PQQ, result without PQQ = 100): 96
- life-extending effect (in words) ([5]; skn-1 gene variant, 5 mM PQQ): strongly suppressed
- Average life after becoming adult ([6]; nsy-1 (ky400), 5 mM PQQ in medium): 16.0 ± 0.3 days
- Relative value ([6]; nsy-1 (ky400), 5 mM PQQ, result without PQQ = 100): 104
- life-extending effect (in words) ([6]; nsy-1 variant, 5 mM PQQ): strongly suppressed
- Average life after becoming adult ([7]; 5 mM PQQ in medium): 34.6 ± 0.9 days
- Relative value [7, 13]: 121
- Average life after becoming adult ([8]; 5 mM PQQ in medium): 23.4 ± 0.9 days
- Relative value [8, 13]: 123
- Average life after becoming adult ([9]; 5 mM PQQ in medium): 11.7 ± 0.4 days
- Relative value [9, 13]: 99
- Average life after becoming adult ([10]; pmk-3 (ok-169), 5 mM PQQ in medium): 17.9 ± 0.4 days
- Relative value ([10]; pmk-3 (ok-169), 5 mM PQQ, result without PQQ = 100): 90
- life-extending effect (in words) ([10]; pmk-3 variant, 5 mM PQQ): strongly suppressed
- Average life after becoming adult ([11]; OB265bli-3 (e767), imEx144[bli-3genomic clone], 5 mM PQQ in medium): 19.8 ± 0.3 days
- Relative value ([11]; OB265bli-3 (e767), imEx144[bli-3genomic clone], 5 mM PQQ, result without PQQ = 100): 122
- life-extending effect (in words) ([11]; bli-3 gene-deficient line transfected with the bli-3 gene, Example 15, 5 mM PQQ): extended

- Main impurities ([12]; 5 mM in agar medium petri dish): PQQ
- Test substance (%) ([12]; 5 mM in agar medium petri dish, LC and UV analysis): Reduced pyrroloquinoline quinone 85%
- share of all PQQs that maintained the reduced state ([12]; 5 mM in agar medium, LC and UV spectrum analysis): 86%
- Main impurities [1]: IPQ
- Test substance (%) [1]: Reduced pyrroloquinoline quinone 65%
SMILES: O=C(O)c1cc(C(=O)O)c2c(n1)c(O)c(O)c1cc(C(=O)O)[nH]c12 [Reduced pyrroloquinoline quinone, reduced pyrroloquinoline quinone]

- Main impurities [1]: PQQ
- Test substance (%) [1]: 92%
- detection of IPQ (formed by reaction with amino acids of the medium) ([1]; petri dish medium with peptone): not detected
SMILES: CC(=O)CC1(O)C(=O)c2cc(C(=O)O)[nH]c2-c2c(C(=O)O)cc(C(=O)O)nc21 (stereo not drawn) [acetone adduct of pyrroloquinoline quinone]
- average life / life-extending effect [2]: tends to extend the average life

Reference: patent US10053459B2, “Life-extending agent, life extension method using the life-extending agent, novel dual oxidase activator, method for activating dual oxidase, production of life-extending agent, and production of dual oxidase activator” (National University Corporation Nagoya University, priority 2014, dated 2018)
